Test results reported in patent US9233968B1, “Kinase inhibitors” (Allergan, Inc., priority 2014, dated 2016).
pIC50: −log10 of the molar value. One block for each molecule: values may come before it.

Tests used:
VEGFR2 = VEGFR2 (Homo sapiens (Human), UniProt P35968); assay: VEGFR2 Cellular Assay (FLIPR, VEGF induced intracellular calcium in HUVEC); type: cell-based; conditions: VEGF165 stimulation 10 ng/mL, read-out: Receptor VEGFR2 IC50
Procedure: (§1) VEGFR2 Cellular Assay Automated FLIPR (Fluorometric Imaging Plate Reader) technology was used to screen for inhibitors of VEGF induced increases in intracellular calcium levels in fluorescent dye loaded endothelial cells. HUVEC (human umbilical vein endothelial cells) (Clonetics) were seeded in 384-well fibronectin coated black-walled plates overnight at 37° C./5% CO2. Cells were loaded with calcium indicator Fluo-4 for 45 minutes at 37° C. Cells were washed 2 times (Elx405, Biotek Instruments) to remove extracellular dye. For screening, cells were pre-incubated with test agents for 30 minutes, at a single concentration (10 μM) or at concentrations ranging from 0.0001 to 10.0 μM followed by VEGF165 stimulation (10 ng/mL). […] Data were generated by determining max-min fluorescence levels for unstimulated, stimulated, and drug treated samples. IC50 values for test compounds were calculated from % inhibition of VEGF stimulated responses in the absence of inhibitor.

[1] = target: VEGFR2 (cytoplasmic domain KDR protein) (Homo sapiens (Human), UniProt P35968); assay: VEGFR2 Kinase Assay (biochemical KDR kinase assay); conditions: 2.7 μM ATP, poly-Glu-Tyr substrate; read-out: Enzyme VEGFR2 IC50
Procedure: Biochemical KDR kinase assays were performed in 96 well microtiter plates that were coated overnight with 75 μg/well of poly-Glu-Tyr (4:1) in 10 mM Phosphate Buffered Saline (PBS), pH 7.4. The coated plates were washed with 2 mls per well PBS+0.05% Tween-20 (PBS-T), blocked by incubation with PBS containing 1% BSA, then washed with 2 mls per well PBS-T prior to starting the reaction. Reactions were carried out in 100 μL reaction volumes containing 2.7 μM ATP in kinase buffer (50 mM Hepes buffer pH 7.4, 20 mM MgCl2, 0.1 mM MnCl2 and 0.2 mM Na3VO4). […] Reactions were initiated by the addition 20 μl per well of kinase buffer containing 200-300 ng purified cytoplasmic domain KDR protein (BPS Bioscience, San Diego, Calif.). Following a 15 minute incubation at 30° C., the reactions were washed 2 mls per well PBS-T. 100 μl of a monoclonal anti-phosphotyrosine antibody-peroxidase conjugate diluted 1:10,000 in PBS-T was added to the wells for 30 minutes. Following a 2 mls per well wash with PBS-Tween-20, 100 μl of O-Phenylenediamine Dihydrochloride in phosphate-citrate buffer, containing urea hydrogen peroxide, was added to the wells for 7-10 minutes as a colorimetric substrate for the peroxidase. The reaction was terminated by the addition of 100 μl of 2.5N H2SO4 to each well and read using a microplate ELISA reader set at 492 nm. IC50 values for compound inhibition were calculated directly from graphs of optical density (arbitrary units) versus compound concentration following subtraction of blank values.

[2] = target: PDGFRβ (cytoplasmic domain PDGFR-b protein) (Homo sapiens (Human), UniProt P09619); assay: PDGFRβ Kinase Assay; type: biochemical; conditions: 36 μM ATP, poly-Glu-Tyr substrate; read-out: Enzyme PDGFRβ IC50
Procedure: Biochemical PDGFRβ kinase assays were performed in 96 well microtiter plates that were coated overnight with 75 μg of poly-Glu-Tyr (4:1) in 10 mM Phosphate Buffered Saline (PBS), pH 7.4. The coated plates were washed with 2 mls per well PBS+0.05% Tween-20 (PBS-T), blocked by incubation with PBS containing 1% BSA, then washed with 2 mls per well PBS-T prior to starting the reaction. […] Reactions were initiated by the addition 20 μl per well of kinase buffer containing 200-300 ng purified cytoplasmic domain PDGFR-b protein (Millipore). Following a 60 minute incubation at 30° C., the reactions were washed 2 mls per well PBS-T. 100 μl of a monoclonal anti-phosphotyrosine antibody-peroxidase conjugate diluted 1:10,000 in PBS-T was added to the wells for 30 minutes. Following a 2 mls per well wash with PBS-Tween-20, 100 μl of O-Phenylenediamine Dihydrochloride in phosphate-citrate buffer, containing urea hydrogen peroxide, was added to the wells for 7-10 minutes as a colorimetric substrate for the peroxidase. […] IC50 values for compound inhibition were calculated directly from graphs of optical density (arbitrary units) versus compound concentration following subtraction of blank values.

PDGFRβ = PDGFRβ (Homo sapiens (Human), UniProt P09619); assay: PDGFRβ Cellular Assay (FLIPR, PDGF-induced intracellular calcium in NHDF-Ad); type: cell-based; conditions: PDGF-BB stimulation 30 ng/mL, read-out: Receptor PDGFRβ IC50
Procedure: as §1, with “Automated” for “VEGFR2 Cellular Assay Automated”, “of PDGF-induced” for “of VEGF induced”, “cells. NHDF-Ad (Normal Human Dermal Fibroblasts, Adult; Lonza)” for “cells. HUVEC (human umbilical vein endothelial cells) (Clonetics)”, “by PDGF-BB” for “by VEGF165”, “stimulation (30” for “stimulation (10”, “of PDGF-BB” for “of VEGF”

Chain of PDGFRβ (P09619 33-1106): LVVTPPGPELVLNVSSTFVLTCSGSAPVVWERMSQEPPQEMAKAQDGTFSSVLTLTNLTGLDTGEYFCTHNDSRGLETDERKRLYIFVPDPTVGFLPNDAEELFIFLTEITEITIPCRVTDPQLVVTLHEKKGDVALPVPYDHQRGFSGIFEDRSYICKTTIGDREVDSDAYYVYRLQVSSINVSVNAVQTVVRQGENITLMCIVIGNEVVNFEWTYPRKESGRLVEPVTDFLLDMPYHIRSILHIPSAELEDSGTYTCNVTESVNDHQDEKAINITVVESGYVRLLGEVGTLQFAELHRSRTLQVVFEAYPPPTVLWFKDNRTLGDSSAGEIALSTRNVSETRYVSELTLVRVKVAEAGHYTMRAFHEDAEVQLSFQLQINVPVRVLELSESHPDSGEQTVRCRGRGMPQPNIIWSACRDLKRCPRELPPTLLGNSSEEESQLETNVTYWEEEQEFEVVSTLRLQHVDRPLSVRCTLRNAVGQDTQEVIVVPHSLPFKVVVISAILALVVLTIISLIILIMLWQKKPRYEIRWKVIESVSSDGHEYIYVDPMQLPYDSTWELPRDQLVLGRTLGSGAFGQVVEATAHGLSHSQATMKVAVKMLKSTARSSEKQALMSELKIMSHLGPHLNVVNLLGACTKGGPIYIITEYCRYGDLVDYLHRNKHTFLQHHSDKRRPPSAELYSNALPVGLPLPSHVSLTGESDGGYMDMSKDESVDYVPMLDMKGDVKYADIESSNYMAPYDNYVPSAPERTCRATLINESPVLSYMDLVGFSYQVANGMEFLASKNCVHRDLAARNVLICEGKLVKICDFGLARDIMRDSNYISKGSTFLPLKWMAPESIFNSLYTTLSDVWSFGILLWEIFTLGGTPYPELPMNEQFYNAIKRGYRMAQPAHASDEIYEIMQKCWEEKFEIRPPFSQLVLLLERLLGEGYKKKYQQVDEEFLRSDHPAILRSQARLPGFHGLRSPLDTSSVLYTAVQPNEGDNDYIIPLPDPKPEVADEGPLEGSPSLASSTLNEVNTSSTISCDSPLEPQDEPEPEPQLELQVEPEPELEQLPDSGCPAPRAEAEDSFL
Chain of PDGFRβ (cytoplasmic domain PDGFR-b protein) (P09619 554-1106): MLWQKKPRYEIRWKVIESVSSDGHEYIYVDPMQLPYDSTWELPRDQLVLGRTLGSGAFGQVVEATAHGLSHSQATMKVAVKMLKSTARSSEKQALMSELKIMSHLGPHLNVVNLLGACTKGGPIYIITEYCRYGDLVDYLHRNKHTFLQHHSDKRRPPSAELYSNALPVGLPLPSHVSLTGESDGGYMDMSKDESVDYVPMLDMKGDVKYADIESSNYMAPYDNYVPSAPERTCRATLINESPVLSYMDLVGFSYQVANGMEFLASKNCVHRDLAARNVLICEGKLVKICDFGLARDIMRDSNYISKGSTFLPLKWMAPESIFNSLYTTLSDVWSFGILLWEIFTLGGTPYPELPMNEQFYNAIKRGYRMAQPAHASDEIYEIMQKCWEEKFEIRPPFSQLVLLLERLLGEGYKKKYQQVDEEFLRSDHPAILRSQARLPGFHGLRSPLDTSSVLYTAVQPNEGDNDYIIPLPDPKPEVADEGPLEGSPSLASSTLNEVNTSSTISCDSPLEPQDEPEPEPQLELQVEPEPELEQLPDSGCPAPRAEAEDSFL
Chain of VEGFR2 (P35968 20-1356): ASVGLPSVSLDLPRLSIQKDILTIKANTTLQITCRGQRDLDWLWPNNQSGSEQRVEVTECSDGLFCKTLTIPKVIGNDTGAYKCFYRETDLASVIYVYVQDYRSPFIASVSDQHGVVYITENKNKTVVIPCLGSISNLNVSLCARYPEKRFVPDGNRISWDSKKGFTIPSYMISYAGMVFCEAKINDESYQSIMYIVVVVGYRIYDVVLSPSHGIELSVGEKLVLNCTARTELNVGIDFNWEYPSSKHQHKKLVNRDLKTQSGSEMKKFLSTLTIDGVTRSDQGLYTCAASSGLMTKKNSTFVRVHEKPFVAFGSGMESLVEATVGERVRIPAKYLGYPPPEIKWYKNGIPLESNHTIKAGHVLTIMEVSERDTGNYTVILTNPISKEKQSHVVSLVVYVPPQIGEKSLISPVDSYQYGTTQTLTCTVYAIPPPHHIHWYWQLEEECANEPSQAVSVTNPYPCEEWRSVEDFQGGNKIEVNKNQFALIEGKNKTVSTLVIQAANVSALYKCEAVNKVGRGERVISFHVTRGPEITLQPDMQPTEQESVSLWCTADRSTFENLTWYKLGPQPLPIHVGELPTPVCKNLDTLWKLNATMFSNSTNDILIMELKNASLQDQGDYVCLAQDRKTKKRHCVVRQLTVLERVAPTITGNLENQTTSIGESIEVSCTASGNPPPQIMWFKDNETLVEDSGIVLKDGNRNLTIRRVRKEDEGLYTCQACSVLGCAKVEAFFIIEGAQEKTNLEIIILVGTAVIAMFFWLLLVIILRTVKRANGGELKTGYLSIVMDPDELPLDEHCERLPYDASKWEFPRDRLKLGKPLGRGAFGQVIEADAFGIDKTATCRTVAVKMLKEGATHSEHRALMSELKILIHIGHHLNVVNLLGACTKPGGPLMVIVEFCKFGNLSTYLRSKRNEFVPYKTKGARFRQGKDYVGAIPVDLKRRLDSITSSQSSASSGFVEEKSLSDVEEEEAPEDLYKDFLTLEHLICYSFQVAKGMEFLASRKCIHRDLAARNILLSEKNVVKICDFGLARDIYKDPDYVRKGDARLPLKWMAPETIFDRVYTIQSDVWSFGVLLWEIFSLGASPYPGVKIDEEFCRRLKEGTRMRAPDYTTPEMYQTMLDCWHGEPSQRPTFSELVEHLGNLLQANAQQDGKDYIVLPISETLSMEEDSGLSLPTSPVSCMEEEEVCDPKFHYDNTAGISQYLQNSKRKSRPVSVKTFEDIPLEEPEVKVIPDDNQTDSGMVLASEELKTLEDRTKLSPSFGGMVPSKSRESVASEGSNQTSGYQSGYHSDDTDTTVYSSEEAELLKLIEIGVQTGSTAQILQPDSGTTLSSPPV
Chain of VEGFR2 (cytoplasmic domain KDR protein) (P35968 786-1356): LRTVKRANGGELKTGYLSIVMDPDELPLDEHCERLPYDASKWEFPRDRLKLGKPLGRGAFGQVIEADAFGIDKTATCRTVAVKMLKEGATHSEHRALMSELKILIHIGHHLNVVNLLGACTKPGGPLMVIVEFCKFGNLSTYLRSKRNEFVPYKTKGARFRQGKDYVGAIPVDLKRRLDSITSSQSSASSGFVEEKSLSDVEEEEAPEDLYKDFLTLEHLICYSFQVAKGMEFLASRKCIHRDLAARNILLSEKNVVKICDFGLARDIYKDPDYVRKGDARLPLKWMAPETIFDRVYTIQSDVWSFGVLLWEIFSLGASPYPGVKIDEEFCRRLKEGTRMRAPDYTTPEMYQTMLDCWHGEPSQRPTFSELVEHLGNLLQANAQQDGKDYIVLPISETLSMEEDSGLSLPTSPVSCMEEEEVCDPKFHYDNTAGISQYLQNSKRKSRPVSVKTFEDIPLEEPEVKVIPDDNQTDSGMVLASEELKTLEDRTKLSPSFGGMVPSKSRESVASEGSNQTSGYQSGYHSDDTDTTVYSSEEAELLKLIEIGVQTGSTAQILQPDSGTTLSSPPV

SMILES: O=C(Nc1ccc(C#Cc2ccc3nccn3n2)cc1)Nc1ccc(F)c(Cl)c1 [Example 5, 1-(3-chloro-4-fluorophenyl)-3-[4-(imidazo[1,2-b]pyridazin-6-ylethynyl)phenyl]urea]
pIC50 [1]: 7.02

SMILES: Cc1ccc(F)c(NC(=O)Nc2ccc(C#Cc3ccc4nccn4n3)cc2)c1 [Example 6, 1-(2-fluoro-5-methylphenyl)-3-[4-(imidazo[1,2-b]pyridazin-6-ylethynyl)phenyl]urea]
pIC50 [1]: 7.00

SMILES: O=C(Nc1ccc(C#Cc2ccc3nccn3n2)cc1)Nc1ccc(Cl)c(C(F)(F)F)c1 [Example 7, 1-[4-chloro-3-(trifluoromethyl)phenyl]-3-[4-(imidazo[1,2-b]pyridazin-6-ylethynyl)phenyl]urea]
pIC50 (VEGFR2): 5.69 | pIC50 [1]: 6.90 | pIC50 [2]: 7.37

SMILES: O=C(Nc1ccccc1)Nc1ccc(C#Cc2ccc3nccn3n2)cc1 [Example 8, 1-[4-(imidazo[1,2-b]pyridazin-6-ylethynyl)phenyl]-3-phenylurea]
pIC50 (VEGFR2): 5.27 | pIC50 [1]: 6.57 | pIC50 [2]: 6.73

SMILES: O=C(Nc1ccc(C#Cc2ccc3nccn3n2)cc1)Nc1cc(C(F)(F)F)ccc1F [Example 9, 1-[2-fluoro-5-(trifluoromethyl)phenyl]-3-[4-(imidazo[1,2-b]pyridazin-6-ylethynyl)phenyl]urea]
pIC50 (VEGFR2): 5.07 | pIC50 [1]: 6.35 | pIC50 [2]: 7.03

SMILES: O=C(Nc1ccc(C#Cc2ccc3nc(NC(=O)Nc4cc(C(F)(F)F)ccc4F)cn3n2)cc1)Nc1cc(C(F)(F)F)ccc1F [Example 10, 1-[2-fluoro-5-(trifluoromethyl)phenyl]-3-[4-({2-[({[2-fluoro-5-(trifluoromethyl)phenyl]amino}carbonyl)amino]imidazo[1,2-b]pyridazin-6-yl}ethynyl)phenyl]urea]
pIC50 (VEGFR2): < 5.00 | pIC50 [1]: 5.84 | pIC50 [2]: < 5.00 | pIC50 (PDGFRβ): < 5.00

SMILES: CC(=O)Nc1cn2nc(C#Cc3ccc(NC(=O)Nc4cccc(C)c4)cc3)ccc2n1 [Example 11, N-(6-{[4-({[(3-methylphenyl)amino]carbonyl}amino)phenyl]ethynyl}imidazo[1,2-b]pyridazin-2-yl)acetamide]
pIC50 (VEGFR2): < 5.00 | pIC50 [1]: 5.50 | pIC50 (PDGFRβ): < 5.00

SMILES: Cc1cccc(NC(=O)Nc2ccc(C#Cc3ccc4nc(NC(=O)C5CC5)cn4n3)cc2)c1 [Example 12, N-(6-{[4-({[(3-methylphenyl)amino]carbonyl}amino)phenyl]ethynyl}imidazo[1,2-b]pyridazin-2-yl)cyclopropanecarboxamide]
pIC50 (VEGFR2): < 5.00 | pIC50 [1]: 5.88 | pIC50 (PDGFRβ): < 5.00

SMILES: Cc1ccc(NC(=O)Nc2ccc(C#Cc3ccc4nccn4n3)cc2)cc1 [Example 13, 1-[4-(imidazo[1,2-b]pyridazin-6-ylethynyl)phenyl]-3-(4-methylphenyl)urea]
pIC50 [2]: 7.17

SMILES: Nc1ccc(C#Cc2ccc3nc(NC(=O)Nc4ccc(F)c(Cl)c4)cn3n2)cc1 [Example 14, 1-{6-[(4-aminophenyl)ethynyl]imidazo[1,2-b]pyridazin-2-yl}-3-(3-chloro-4-fluorophenyl)urea]
pIC50 (VEGFR2): < 5.00 | pIC50 [1]: 5.77 | pIC50 [2]: 5.18 | pIC50 (PDGFRβ): 4.98

SMILES: O=C(Nc1ccc(C#Cc2ccc3nc(NC(=O)Nc4ccc(F)c(Cl)c4)cn3n2)cc1)Nc1ccc(F)c(Cl)c1 [Example 15, 1-(3-chloro-4-fluorophenyl)-3-(4-{[2-({[(3-chloro-4-fluorophenyl)amino]carbonyl}amino)imidazo[1,2-b]pyridazin-6-yl]ethynyl}phenyl)urea]
pIC50 (VEGFR2): < 5.00 | pIC50 [1]: 5.53 | pIC50 [2]: 5.44 | pIC50 (PDGFRβ): 5.44

SMILES: Nc1cn2nc(C#Cc3ccc(NC(=O)c4ccccc4)cc3)ccc2n1 [Example 19, N-{4-[(2-aminoimidazo[1,2-b]pyridazin-6-yl)ethynyl]phenyl}benzamide]
pIC50 (VEGFR2): < 5.00 | pIC50 [1]: 5.90 | pIC50 [2]: < 5.00 | pIC50 (PDGFRβ): < 5.00

SMILES: Cc1cccc(C(=O)Nc2cccc(C#Cc3ccc4nccn4n3)c2)c1 [Example 23, N-[3-(imidazo[1,2-b]pyridazin-6-ylethynyl)phenyl]-3-methylbenzamide]
pIC50 (VEGFR2): 6.06 | pIC50 [1]: 6.53 | pIC50 [2]: 5.82

SMILES: Cc1ccc(F)c(NC(=O)Nc2cccc(C#Cc3ccc4nccn4n3)c2)c1 [Example 29, 1-(2-fluoro-5-methylphenyl)-3-[3-(imidazo[1,2-b]pyridazin-6-ylethynyl)phenyl]urea]
pIC50 [1]: 5.33 | pIC50 [2]: < 5.00

SMILES: Cc1ccc(F)c(NC(=O)Nc2ccccc2C#Cc2ccc3nccn3n2)c1 [Example 30, 1-(2-fluoro-5-methylphenyl)-3-[2-(imidazo[1,2-b]pyridazin-6-ylethynyl)phenyl]urea]
pIC50 [1]: 5.74 | pIC50 [2]: < 5.00

Second part, the molecule after the results:

pIC50 (VEGFR2): 7.29 | pIC50 [1]: 7.70 | pIC50 [2]: 7.47 | pIC50 (PDGFRβ): 6.64
SMILES: Cc1cccc(NC(=O)Nc2ccc(C#Cc3ccc4nc(N)cn4n3)cc2)c1 [Example 1, 1-{4-[(2-aminoimidazo[1,2-b]pyridazin-6-yl)ethynyl]phenyl}-3-(3-methylphenyl)urea]

pIC50 (VEGFR2): 6.02 | pIC50 [1]: 7.33 | pIC50 [2]: 7.49 | pIC50 (PDGFRβ): 6.34
SMILES: O=C(Nc1ccc(C#Cc2ccc3nccn3n2)cc1)Nc1cccc(C(F)(F)F)c1 [Example 2, 1-[4-(imidazo[1,2-b]pyridazin-6-ylethynyl)phenyl]-3-[3-(trifluoromethyl)phenyl]urea]

pIC50 (VEGFR2): 6.88 | pIC50 [1]: 7.64 | pIC50 [2]: 7.10 | pIC50 (PDGFRβ): 7.15
SMILES: Cc1cccc(NC(=O)Nc2ccc(C#Cc3ccc4nccn4n3)cc2)c1 [Example 3, 1-[4-(imidazo[1,2-b]pyridazin-6-ylethynyl)phenyl]-3-(3-methylphenyl)urea]

pIC50 (VEGFR2): 6.37 | pIC50 [1]: 7.14 | pIC50 [2]: 7.26 | pIC50 (PDGFRβ): 6.29
SMILES: Nc1cn2nc(C#Cc3ccc(NC(=O)Nc4cc(C(F)(F)F)ccc4F)cc3)ccc2n1 [Example 4, 1-{4-[(2-aminoimidazo[1,2-b]pyridazin-6-yl)ethynyl]phenyl}-3-[2-fluoro-5-(trifluoromethyl)phenyl]urea]

pIC50 (VEGFR2): 7.80 | pIC50 [1]: 7.68
SMILES: Cc1ccc(F)c(NC(=O)Nc2cccc(C#Cc3cccc4[nH]nc(N)c34)c2)c1 [Example 31, 1-{3-[(3-amino-1H-indazol-4-yl)ethynyl]phenyl}-3-(2-fluoro-5-methylphenyl)urea]

pIC50 (VEGFR2): 7.70 | pIC50 [1]: 7.39
SMILES: Nc1n[nH]c2cccc(C#Cc3cccc(NC(=O)Nc4ccccc4)c3)c12 [Example 32, 1-{3-[(3-amino-1H-indazol-4-yl)ethynyl]phenyl}-3-phenylurea]

pIC50 (VEGFR2): 6.79 | pIC50 [1]: 7.05
SMILES: Cc1ccc(F)c(NC(=O)Nc2ccc(C#Cc3cccc4[nH]nc(N)c34)cc2)c1 [Example 33, 1-{4-[(3-amino-1H-indazol-4-yl)ethynyl]phenyl}-3-(2-fluoro-5-methylphenyl)urea]
